In assay [1] the target is Casein kinase 1 delta (CSKN1D) (Homo sapiens, UniProt P48730). The experiment in a line: Casein kinase assay, CK1 delta. The settings on record: recombinant CSKN1D 5 nM, ATP 10 μM. In kind it is biochemical.
A further assay deals with 22RV1 (prostate). Description: Proliferation Assay. The note with it: Homo sapiens, 72 h, read-out: IC50 inhibition of cell growth. In kind it is cell-based. How it is done: (§1) For the determination of the inhibitory capacity of compounds of the present invention (in the following: “test compound(s)”) on cell growth, cancer cells were seeded into microtitre plates, treated with different concentrations of test compound or left untreated, and after 72 h the protein content was determined as an equivalent for the cell number.
(§2) Test compounds were dissolved in 100% DMSO and predilutions in cell culture medium were prepared with a final concentration of 0.1% DMSO in medium. The cell culture medium for dilution of the test compounds, consecutive culturing of cell lines and usage during the assay was a cell line specific medium as recommended by the cell line supplier and identical for all three applications mentioned above. After a 24-hour pre-growth period of the seeded cancer cells, the test compound containing media or medium containing 0.1% DMSO as control was added to the cells. The cells were allowed to grow at 37° C. for 72 hours. In addition, all experiments contained a few plates with cells that were processed for measurement immediately after the 24 hours recovery period. These plates contained information about the cell number that existed before treatment, at time zero, and served to calculate the cytotoxicity and/or growth inhibitory effects.
(§3) After treatment, cells were precipitated by addition of 10% TCA (trichloracetic acid). Prior to fixation, the media was aspirated. After an hour of incubation at 4° C. the plates were washed twice with 400 μl of deionized water. Cells were then stained with 100 μl of a 0.08% wt/v SRB (sulforhodamine). The plates were allowed to sit for at least 30 min and washed six times with 1% acetic acid to remove unbound staining agent. The plates were left to dry at room temperature and bound SRB was solubilized with 100 μl of 10 mM Tris base. Measurement of optical density was performed at 560 nm on a Victor 2 plate reader (Perkin Elmer, Germany).
(§4) One common way to express the effect of an anticancer agent is to measure cell viability and survival in the presence of the test agent as % Treated/Control×100. The relationship between the viability and dose is called a dose response curve. Those dose response curves were determined by using algorithms developed by Oncolead GmbH & Co. KG, Munich, Germany, that can be compared to commercial applications, e.g. XLfit™ (ID Business Solutions Ltd., Guildford, UK) algorithm “205”.

A further assay concerns A431 (skin). The experiment in a line: Proliferation Assay. In kind it is cell-based. The note with it: Homo sapiens, A-431, 72 h, read-out: IC50 inhibition of cell growth. The procedure: as §1, §2, §3, §4
For the next assay, the system named is ACHN (kidney). The experiment in a line: Proliferation Assay. In kind it is cell-based. The note with it: Homo sapiens, 72 h, read-out: IC50 inhibition of cell growth. The procedure:
as §1, §2, §3, §4

For another assay, the system named is BT20 (breast). Description: Proliferation Assay. In kind it is cell-based. The note with it: Homo sapiens, BT-20, 72 h, read-out: IC50 inhibition of cell growth. The procedure:
as §1, §2, §3, §4

The next assay has as its system EFO21 (ovary). Description: Proliferation Assay. It is filed as cell-based. The note with it: Homo sapiens, EFO-21, 72 h, read-out: IC50 inhibition of cell growth. How it is done:
as §1, §2, §3, §4

For the next assay, the system named is HEK293 (kidney). The experiment in a line: Proliferation Assay. It is filed as cell-based. The note with it: Homo sapiens, 72 h, read-out: IC50 inhibition of cell growth. The procedure:
as §1, §2, §3, §4

A further assay concerns HEPG2 (liver). Description: Proliferation Assay. It is filed as cell-based. The settings on record: Homo sapiens, 72 h, read-out: IC50 inhibition of cell growth. The procedure:
as §1, §2, §3, §4

The subject of another assay is IMR90 (lung). The experiment in a line: Proliferation Assay. In kind it is cell-based. The settings on record: Homo sapiens, IMR-90, 72 h, read-out: IC50 inhibition of cell growth. The procedure: as §1, §2, §3, §4
In the next assay the test system is MDAMB436 (breast). Description: Proliferation Assay. The note with it: Homo sapiens, MDA-MB-436, 72 h, read-out: IC50 inhibition of cell growth. It is filed as cell-based. The procedure:
as §1, §2, §3, §4

Another assay relates to MT3 (breast). Description: Proliferation Assay. In kind it is cell-based. The note with it: 72 h, read-out: IC50 inhibition of cell growth. The procedure: as §1, §2, §3, §4
The subject of another assay is NCIH460 (lung). The experiment in a line: Proliferation Assay. It is filed as cell-based. The note with it: Homo sapiens, NCI-H460, 72 h, read-out: IC50 inhibition of cell growth. How it is done: as §1, §2, §3, §4
Another assay deals with PANC1 (pancreas). The experiment in a line: Proliferation Assay. It is filed as cell-based. The note with it: Homo sapiens, PANC-1, 72 h, read-out: IC50 inhibition of cell growth. The procedure: as §1, §2, §3, §4
For the next assay, the system named is PANC1005 (pancreas). Description: Proliferation Assay. The settings on record: Homo sapiens, 72 h, read-out: IC50 inhibition of cell growth. It is filed as cell-based. How it is done:
as §1, §2, §3, §4

The test system of the next assay is PLCPRFS (liver). The experiment in a line: Proliferation Assay. In kind it is cell-based. The settings on record: 72 h, read-out: IC50 inhibition of cell growth. The procedure:
as §1, §2, §3, §4

In another assay the test system is RD (muscle). Description: Proliferation Assay. It is filed as cell-based. The note with it: 72 h, read-out: IC50 inhibition of cell growth. The procedure: as §1, §2, §3, §4
The next assay relates to RDES (bone). Description: Proliferation Assay. It is filed as cell-based. The note with it: RD-ES, 72 h, read-out: IC50 inhibition of cell growth. How it is done:
as §1, §2, §3, §4

The test system of the next assay is SAOS2 (bone). The experiment in a line: Proliferation Assay. It is filed as cell-based. The note with it: Homo sapiens, SAOS-2, 72 h, read-out: IC50 inhibition of cell growth. The procedure: as §1, §2, §3, §4
In the next assay the test system is SKBR3 (breast). Description: Proliferation Assay. It is filed as cell-based. The settings on record: Homo sapiens, SK-BR-3, 72 h, read-out: IC50 inhibition of cell growth. The procedure: as §1, §2, §3, §4
The next assay deals with SKMEL5 (skin). The experiment in a line: Proliferation Assay. The note with it: Homo sapiens, SK-MEL-5, 72 h, read-out: IC50 inhibition of cell growth. In kind it is cell-based. The procedure:
as §1, §2, §3, §4

The subject of another assay is SKNSH (brain). Description: Proliferation Assay. In kind it is cell-based. The note with it: Homo sapiens, SK-N-SH, 72 h, read-out: IC50 inhibition of cell growth. The procedure:
as §1, §2, §3, §4

Another assay deals with U2OS (bone). Description: Proliferation Assay. In kind it is cell-based. The settings on record: Homo sapiens, 72 h, read-out: IC50 inhibition of cell growth. The procedure:
as §1, §2, §3, §4

In a further assay the test system is UMUC3 (bladder). Description: Proliferation Assay. It is filed as cell-based. The note with it: Homo sapiens, 72 h, read-out: IC50 inhibition of cell growth. The procedure: as §1, §2, §3, §4

Where two headings read alike, the source gives them in different places. A value given as a limit tells only on which side of the number the result lay.

Chain of Casein kinase 1 delta (CSKN1D) (P48730 whole entry): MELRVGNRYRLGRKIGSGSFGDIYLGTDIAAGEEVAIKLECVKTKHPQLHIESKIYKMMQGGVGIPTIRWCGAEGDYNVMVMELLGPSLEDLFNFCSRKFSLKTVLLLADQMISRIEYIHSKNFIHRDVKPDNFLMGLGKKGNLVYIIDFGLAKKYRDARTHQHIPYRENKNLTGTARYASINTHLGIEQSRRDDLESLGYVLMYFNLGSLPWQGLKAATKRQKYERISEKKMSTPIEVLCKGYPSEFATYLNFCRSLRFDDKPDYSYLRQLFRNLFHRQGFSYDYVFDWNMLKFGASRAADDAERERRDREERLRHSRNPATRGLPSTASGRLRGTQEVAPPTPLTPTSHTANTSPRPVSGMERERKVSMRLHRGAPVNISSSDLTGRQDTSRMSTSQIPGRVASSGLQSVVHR

One may read the IC50 as the concentration that gives 50% inhibition. For `COc1cccc(C(=O)Nc2nc3cc4c(cc3[nH]2)OC(F)(F)O4)c1` [Compound 56, N-(2,2-difluoro-5H-[1,3]dioxolo[4′,5′:4,5]benzo[1,2-d]imidazol-6-yl)-3-methoxybenzamide], the IC50 in [1] is below 0.2 µM; in the assay on 22RV1 (prostate), at most 1 µM; in the assay on A431 (skin), at most 1 µM; in the assay with ACHN (kidney) it was at most 1 µM; with BT20 (breast) it was at most 1 µM; with EFO21 (ovary), at most 1 µM. Also, the IC50 with HEK293 (kidney), in the assay on HEPG2 (liver), in the assay on IMR90 (lung), with MDAMB436 (breast), in the assay on MT3 (breast) and with NCIH460 (lung) was at most 1 µM in each case. In addition, the IC50 with PANC1 (pancreas), in the assay with PANC1005 (pancreas), in the assay with PLCPRFS (liver), in the assay with RD (muscle), in the assay on RDES (bone) and in the assay with SAOS2 (bone) was at most 1 µM throughout. Moreover, the IC50 in the assay on SKBR3 (breast) was at most 1 µM; with SKMEL5 (skin) (SKMEL5 (skin)), at most 1 µM; with SKMEL5 (skin) (SKMELS (skin)) it was at most 0.1 µM; in the assay on SKNSH (brain) it was at most 1 µM; with U2OS (bone), at most 1 µM; in the assay with UMUC3 (bladder), at most 1 µM.

These data come from patent publication US20170240556A1, “BIFLUORODIOXALANE-AMINO-BENZIMIDAZOLE KINASE INHIBITORS FOR THE TREATMENT OF CANCER, AUTOIMMUNEINFLAMMATION AND CNS DISORDERS” (4SC DISCOVERY GMBH, priority 2012, published 2017).
